The values that follow come from patent publication US9095600B2, “Prophylactic and/or therapeutic agent for cardiac infarction” (OSAKA UNIVERSITY, priority 2007, dated 2015).

The subject of data set [1] is ischemia-reperfusion model rat. Nature of the data set: Ischemia-reperfusion test (rat), myocardial infarct size. The format is in vivo, Male SD rats. The settings on record: 900 μg/kg/minute i.v. for 10 minutes, injection before ischemia, 72 hours after reperfusion. As for the experimental part:
Similar to the case of the hemodynamic test, male SD rats were employed. Each of the rats was anesthetized and artificially ventilated, and then thoracotomy was carried out at the thoracic sidewall. The left anterior descending coronary artery (LAD) was ligated by means of a suturing needle with suture for 30 minutes, and then blood flow was restored, to thereby prepare an ischemia-reperfusion model. A drug sample was injected through a catheter (INTRAMEDIC Polyethylene Tubing PE50, CLAY ADAMS) indwelled in the femoral vein.
In this test, an adenosine-retaining liposome group were divided into two groups: a group received adenosine-retaining liposomes before ischemia (injected for 10-minute before ischemia), and a group received adenosine-retaining liposomes before reperfusion (injected for 10-minute initiated 5 minutes before reperfusion). In the other groups, injection was carried out before ischemia (injected for 10-minute before ischemia). […]
Each of the rats was anesthetized 72 hours after reperfusion, and then thoracotomy was carried out again. […] After staining, the specimens were photographed, and an ischemic risk area (non-Evans blue-stained area) and an infarct area (non-TTC-stained area) were determined by means of Win ROOF Version 5.5 (product of Mitani Corporation). Infarct size was calculated by dividing the infarct area by the ischemic risk area.

The conditions of data set [2]: cited from earlier work.
Data set [3] is described as follows: Hemodynamic test (blood pressure and heart rate during intravenous injection). The format is in vivo, Male SD rats. The settings on record: rat, i.v. As for the experimental part: Male SD rats (nine weeks old, body weight: 270 g to 320 g, supplied by Japan SLC, Inc.) were employed. Each of the rats was anesthetized with pentobarbital sodium (30 mg/kg, intraperitoneal injection) and then fixed in the dorsal position. A tube was orally inserted into the trachea, and artificial ventilation was carried out by means of a ventilator for small animals. A catheter (INTRAMEDIC Polyethylene Tubing PE50, CLAY ADAMS) was inserted into the femoral artery and the femoral vein, and systolic blood pressure, diastolic blood pressure, and mean blood pressure were measured in the femoral artery. Heart rate was measured by means of an electrocardiograph. A drug sample was injected through the catheter indwelled in the femoral vein by means of a syringe pump (Model PHD 4400, HARVARD). Specifically, after stabilization of hemodynamics, empty liposomes (n=8), adenosine only (n=8), and adenosine-retaining liposomes (n=8) were injected transvenously, respectively.
In an empty liposome group, injection was carried out at 0.05 mL/minute for 10 minutes (one minute, five minutes, and 10 minutes after initiation of injection, blood pressure and heart rate were evaluated), and, for five minutes after completion of injection, blood pressure and heart rate were evaluated. Thereafter, evaluation was carried out in a manner similar to that described above at an injection rate of 0.1 mL/minute, 0.2 mL/minute, or 0.4 mL/minute. In an adenosine-only group or an adenosine-retaining liposome group, injection was initiated at 0.05 mL/minute (225 μg/kg/minute as reduced to adenosine), and cumulative administration was carried out through the same protocol as in the case of the empty liposome group.

Setting [4] is: ten minutes after initiation of adenosine injection at 225 μg/kg/minute.
The mark [5] stands for this setting: ten minutes after initiation of adenosine injection at 450 μg/kg/minute.
The mark [6] stands for this setting: ten minutes after initiation of adenosine injection at 900 μg/kg/minute.
[7] abbreviates: ten minutes after initiation of adenosine injection at 1,800 μg/kg/minute.

Each structure is given as a SMILES string.

Regarding `Nc1ncnc2c1ncn2[C@@H]1O[C@H](CO)[C@@H](O)[C@H]1O` [adenosine, Adenosine], the “myocardial infarct size (infarct area / ischemic risk area)” value in data set [1] is listed as 25.2±1.9%. Besides, the “half life in blood” value in data set [2] was less than 10 s. Further, the heart rate was 357±25 bpm in data set [3] (setting [4]), 324±25 bpm in data set [3] (setting [5]), 296±12 bpm in data set [3] (setting [6]) and 236±17 bpm in data set [3] (setting [7]). Further, the mean blood pressure is 101±12 mmHg in data set [3] (setting [4]), 93±14 mmHg in data set [3] (setting [5]), 84±11 mmHg in data set [3] (setting [6]) and 75±11 mmHg in data set [3] (setting [7]).
